Numbered stars: 1 amine (or outer) side, 2 acyl side, 3 side chain; on linkers, the order of the positions; unused ones are H or OH. Side chains are listed from the residue outwards. Peptide text beside a SMILES is read from it. * marks the point of attachment. C18 diacid = O=C(O)CCCCCCCCCCCCCCCCC(=O)*; γGlu = O=C(O)[C@H](CCC(=O)[*:2])N[*:1]; AEEA = NCCOCCOCC(=O)O
Target: glucagon receptor (Homo sapiens, UniProt P47871)
Experiment: cell-based

Chain of glucagon receptor (P47871 26-477): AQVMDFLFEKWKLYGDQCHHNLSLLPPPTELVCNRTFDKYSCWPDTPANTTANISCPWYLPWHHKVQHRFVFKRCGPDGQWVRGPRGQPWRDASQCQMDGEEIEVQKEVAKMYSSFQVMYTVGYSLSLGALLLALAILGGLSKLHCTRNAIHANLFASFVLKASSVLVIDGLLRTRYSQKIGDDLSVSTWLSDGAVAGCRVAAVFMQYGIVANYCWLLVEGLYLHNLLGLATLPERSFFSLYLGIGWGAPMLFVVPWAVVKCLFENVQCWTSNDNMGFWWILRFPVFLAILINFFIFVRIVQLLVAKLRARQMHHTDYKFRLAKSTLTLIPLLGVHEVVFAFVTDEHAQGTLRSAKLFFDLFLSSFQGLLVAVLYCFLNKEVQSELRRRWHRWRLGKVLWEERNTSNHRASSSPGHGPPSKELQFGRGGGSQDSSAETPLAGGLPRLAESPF

Structure (SMILES)	EC50 [nM]
CC(C)C[C@H](NC(=O)[C@H](Cc1ccc(O)cc1)NC(=O)[C@H](CCCCN)NC(=O)[C@H](CO)NC(=O)[C@H](Cc1ccc(O)cc1)NC(=O)[C@H](CC(=O)O)NC(=O)[C@H](CO)NC(=O)[C@@H](NC(=O)[C@H](Cc1ccccc1)NC(=O)[C@@H](NC(=O)CNC(=O)[C@H](CCC(N)=O)NC(=O)[C@H](CO)NC(=O)[C@@H](N)Cc1c[nH]cn1)[C@@H](C)O)[C@@H](C)O)C(=O)N[C@@H](CC(=O)O)C(=O)N[C@@H](CO)C(=O)N[C@@H](CCCCN)C(=O)N[C@@H](CCCCN)C(=O)N[C@@H](C)C(=O)N[C@@H](CCC(N)=O)C(=O)N[C@@H](CCC(=O)O)C(=O)N[C@@H](Cc1ccccc1)C(=O)N[C@H](C(=O)N[C@@H](CCCCNC(=O)COCCOCCNC(=O)COCCOCCNC(=O)CC[C@H](NC(=O)CCCCCCCCCCCCCCCCC(=O)O)C(=O)O)C(=O)N[C@@H](Cc1c[nH]c2ccccc12)C(=O)N[C@@H](CC(C)C)C(=O)N[C@@H](CC(C)C)C(=O)N[C@@H](CO)C(=O)N[C@H](C(=O)O)[C@@H](C)O)C(C)C [Example 55, N^ε24-([2-[2-[2-[[2-[2-[2-[[(4S)-5-hydroxy-4-[(18-hydroxy-18-oxooctadecanoyl)amino]-5-oxopentanoyl]amino]ethoxy]ethoxy]acetyl]amino]ethoxy]ethoxy]acetyl]) [Lys^17,Lys^18,Glu^21,Lys^24,Leu^27, Ser^28] Glucagon] (H-HSQGTFTSDYSKYLDSKKAQEFVK([AEEA-AEEA-γGlu-C18 diacid])WLLST-OH; N-terminus and C-terminus assumed)	0.009
CC(C)C[C@H](NC(=O)[C@H](Cc1ccc(O)cc1)NC(=O)[C@H](CCCCN)NC(=O)[C@H](CO)NC(=O)[C@H](Cc1ccc(O)cc1)NC(=O)[C@H](CC(=O)O)NC(=O)[C@H](CO)NC(=O)[C@@H](NC(=O)[C@H](Cc1ccccc1)NC(=O)[C@@H](NC(=O)CNC(=O)[C@H](CCC(N)=O)NC(=O)[C@H](CO)NC(=O)[C@@H](N)Cc1c[nH]cn1)[C@@H](C)O)[C@@H](C)O)C(=O)N[C@@H](CC(=O)O)C(=O)N[C@@H](CO)C(=O)N[C@@H](CCCNC(=N)N)C(=O)N[C@@H](CCCNC(=N)N)C(=O)N[C@@H](C)C(=O)N[C@@H](CCC(N)=O)C(=O)N[C@@H](CC(=O)O)C(=O)N[C@@H](Cc1ccccc1)C(=O)N[C@H](C(=O)N[C@@H](CCCCNC(=O)COCCOCCNC(=O)COCCOCCNC(=O)CC[C@H](NC(=O)CCCCCCCCCCCCCCCCC(=O)O)C(=O)O)C(=O)N[C@@H](Cc1ccc(OP(=O)(O)O)cc1)C(=O)N[C@@H](CC(C)C)C(=O)N[C@@H](CC(C)C)C(=O)N[C@@H](CC(N)=O)C(=O)N[C@H](C(=O)O)[C@@H](C)O)C(C)C [Example 56, N^ε24-([2-[2-[2-[[2-[2-[2-[[(4S)-5-hydroxy-4-[(18-hydroxy-18-oxooctadecanoyl)amino]-5-oxopentanoyl]amino]ethoxy]ethoxy]acetyl]amino]ethoxy]ethoxy]acetyl]) [Lys^24, (p)Tyr^25,Leu^27] Glucagon]	0.171
CC(C)C[C@H](NC(=O)[C@H](Cc1ccc(O)cc1)NC(=O)[C@H](CCCCN)NC(=O)[C@H](CO)NC(=O)[C@H](Cc1ccc(O)cc1)NC(=O)[C@H](CC(=O)O)NC(=O)[C@H](CO)NC(=O)[C@@H](NC(=O)[C@H](Cc1ccccc1)NC(=O)[C@@H](NC(=O)CNC(=O)[C@H](CCC(N)=O)NC(=O)[C@H](CO)NC(=O)[C@@H](N)Cc1c[nH]cn1)[C@@H](C)O)[C@@H](C)O)C(=O)N[C@@H](CC(=O)O)C(=O)N[C@@H](CO)C(=O)N[C@@H](CCCNC(=N)N)C(=O)N[C@@H](CCCNC(=N)N)C(=O)N[C@@H](C)C(=O)N[C@@H](CCC(N)=O)C(=O)N[C@@H](CCC(=O)O)C(=O)N[C@@H](Cc1ccccc1)C(=O)N[C@H](C(=O)N[C@@H](CCCCNC(=O)COCCOCCNC(=O)COCCOCCNC(=O)CC[C@H](NC(=O)CCCCCCCCCCCCCCCCC(=O)O)C(=O)O)C(=O)N[C@@H](CCCNC(=N)N)C(=O)N[C@@H](CC(C)C)C(=O)N[C@@H](CC(C)C)C(=O)N[C@@H](CC(N)=O)C(=O)N[C@H](C(=O)O)[C@@H](C)O)C(C)C [Example 58, N^ε24-([2-[2-[2-[[2-[2-[2-[[(4S)-5-hydroxy-4-[(18-hydroxy-18-oxooctadecanoyl)amino]-5-oxopentanoyl]amino]ethoxy]ethoxy]acetyl]amino]ethoxy]ethoxy]acetyl]) [Glu^21,Lys^24,Arg^25,Leu^27] Glucagon]	0.074
CC(C)C[C@H](NC(=O)[C@H](Cc1ccc(O)cc1)NC(=O)[C@H](CCCCN)NC(=O)[C@H](CO)NC(=O)[C@H](Cc1ccc(O)cc1)NC(=O)[C@H](CC(=O)O)NC(=O)[C@H](CO)NC(=O)[C@@H](NC(=O)[C@H](Cc1ccccc1)NC(=O)[C@@H](NC(=O)CNC(=O)[C@H](CCC(N)=O)NC(=O)[C@H](CO)NC(=O)[C@@H](N)Cc1c[nH]cn1)[C@@H](C)O)[C@@H](C)O)C(=O)N[C@@H](CC(=O)O)C(=O)N[C@@H](CO)C(=O)N[C@@H](CCCNC(=N)N)C(=O)N[C@@H](CCCNC(=N)N)C(=O)N[C@@H](C)C(=O)N[C@@H](CCC(N)=O)C(=O)N[C@@H](CC(=O)O)C(=O)N[C@@H](Cc1ccccc1)C(=O)N[C@H](C(=O)N[C@@H](CCC(N)=O)C(=O)N[C@@H](Cc1c[nH]c2ccccc12)C(=O)N[C@@H](CC(C)C)C(=O)N[C@@H](CC(C)C)C(=O)N[C@@H](CCCCNC(=O)CC[C@H](NC(=O)COCCOCCNC(=O)COCCOCCNC(=O)CC[C@H](NC(=O)CC[C@H](NC(=O)CCCCCCCCCCCCCCCCC(=O)O)C(=O)O)C(=O)O)C(=O)O)C(=O)N[C@H](C(=O)O)[C@@H](C)O)C(C)C [Example 66, N^ε28-[(4S)-4-carboxy-4-[[2-[2-[2-[[2-[2-[2-[[(4S)-4-carboxy-4-[[(4S)-4-carboxy-4-(17-carboxyheptadecanoylamino)butanoyl]amino]butanoyl]amino]ethoxy]ethoxy]acetyl]amino]ethoxy]ethoxy]acetyl]amino]butanoyl]-[Leu^27,Lys^28]-Glucagon]	0.093
CC(C)C[C@H](NC(=O)[C@H](Cc1ccc(O)cc1)NC(=O)[C@H](CCCCN)NC(=O)[C@H](CO)NC(=O)[C@H](Cc1ccc(O)cc1)NC(=O)[C@H](CC(=O)O)NC(=O)[C@H](CO)NC(=O)[C@@H](NC(=O)[C@H](Cc1ccccc1)NC(=O)[C@@H](NC(=O)CNC(=O)[C@H](CCC(N)=O)NC(=O)[C@H](CO)NC(=O)[C@@H](N)Cc1c[nH]cn1)[C@@H](C)O)[C@@H](C)O)C(=O)N[C@@H](CC(=O)O)C(=O)N[C@@H](CO)C(=O)N[C@@H](CCCNC(=N)N)C(=O)N[C@@H](CCCNC(=N)N)C(=O)N[C@@H](C)C(=O)N[C@@H](CCC(N)=O)C(=O)N[C@@H](CC(=O)O)C(=O)N[C@@H](Cc1ccccc1)C(=O)N[C@H](C(=O)N[C@@H](CCC(N)=O)C(=O)N[C@@H](Cc1c[nH]c2ccccc12)C(=O)N[C@@H](CC(C)C)C(=O)N[C@@H](CC(C)C)C(=O)N[C@@H](CCCCNC(=O)COCCOCCNC(=O)COCCOCCNC(=O)CC[C@H](NC(=O)CC[C@H](NC(=O)CC[C@H](NC(=O)CCCCCCCCCCCCCCCCC(=O)O)C(=O)O)C(=O)O)C(=O)O)C(=O)N[C@H](C(=O)O)[C@@H](C)O)C(C)C [Example 67, N^ε28-[2-[2-[2-[[2-[2-[2-[[(4S)-4-carboxy-4-[[(4S)-4-carboxy-4-[[(4S)-4-carboxy-4-(17-carboxyheptadecanoylamino)butanoyl]amino]butanoyl]amino]butanoyl]amino]ethoxy]ethoxy]acetyl]amino]ethoxy]ethoxy]acetyl]-[Leu^27,Lys^28]-Glucagon]	0.116
CC(C)C[C@H](NC(=O)[C@H](Cc1ccc(O)cc1)NC(=O)[C@H](CCCCN)NC(=O)[C@H](CO)NC(=O)[C@H](Cc1ccc(O)cc1)NC(=O)[C@H](CC(=O)O)NC(=O)[C@H](CO)NC(=O)[C@@H](NC(=O)[C@H](Cc1ccccc1)NC(=O)[C@@H](NC(=O)CNC(=O)[C@H](CCC(N)=O)NC(=O)[C@H](CO)NC(=O)[C@@H](N)Cc1c[nH]cn1)[C@@H](C)O)[C@@H](C)O)C(=O)N[C@@H](CC(=O)O)C(=O)N[C@@H](CO)C(=O)N[C@@H](CCCNC(=N)N)C(=O)N[C@@H](CCCNC(=N)N)C(=O)N[C@@H](C)C(=O)N[C@@H](CCC(N)=O)C(=O)N[C@@H](CC(=O)O)C(=O)N[C@@H](Cc1ccccc1)C(=O)N[C@H](C(=O)N[C@@H](CCCCNC(=O)CC[C@H](NC(=O)COCCOCCNC(=O)COCCOCCNC(=O)CC[C@H](NC(=O)CC[C@H](NC(=O)CCCCCCCCCCCCCCCCC(=O)O)C(=O)O)C(=O)O)C(=O)O)C(=O)N[C@@H](Cc1c[nH]c2ccccc12)C(=O)N[C@@H](CC(C)C)C(=O)N[C@@H](CC(C)C)C(=O)N[C@@H](CO)C(=O)N[C@H](C(=O)O)[C@@H](C)O)C(C)C [Example 68, N^ε24-[(4S)-4-carboxy-4-[[2-[2-[2-[[2-[2-[2-[[(4S)-4-carboxy-4-[[(4S)-4-carboxy-4-(17-carboxyheptadecanoylamino)butanoyl]amino]butanoyl]amino]ethoxy]ethoxy]acetyl]amino]ethoxy]ethoxy]acetyl]amino]butanoyl]-[Lys^24,Leu^27,Ser^28]-Glucagon]	0.106
CC(C)C[C@H](NC(=O)[C@H](Cc1ccc(O)cc1)NC(=O)[C@H](CCCCN)NC(=O)[C@H](CO)NC(=O)[C@H](Cc1ccc(O)cc1)NC(=O)[C@H](CC(=O)O)NC(=O)[C@H](CO)NC(=O)[C@@H](NC(=O)[C@H](Cc1ccccc1)NC(=O)[C@@H](NC(=O)CNC(=O)[C@H](CCC(N)=O)NC(=O)[C@H](CO)NC(=O)[C@@H](N)Cc1c[nH]cn1)[C@@H](C)O)[C@@H](C)O)C(=O)N[C@@H](CC(=O)O)C(=O)N[C@@H](CO)C(=O)N[C@@H](CCCNC(=N)N)C(=O)N[C@@H](CCCNC(=N)N)C(=O)N[C@@H](C)C(=O)N[C@@H](CCC(N)=O)C(=O)N[C@@H](CC(=O)O)C(=O)N[C@@H](Cc1ccccc1)C(=O)N[C@H](C(=O)N[C@@H](CCCCNC(=O)COCCOCCNC(=O)COCCOCCNC(=O)CC[C@H](NC(=O)CC[C@H](NC(=O)CC[C@H](NC(=O)CCCCCCCCCCCCCCCCC(=O)O)C(=O)O)C(=O)O)C(=O)O)C(=O)N[C@@H](Cc1c[nH]c2ccccc12)C(=O)N[C@@H](CC(C)C)C(=O)N[C@@H](CC(C)C)C(=O)N[C@@H](CO)C(=O)N[C@H](C(=O)O)[C@@H](C)O)C(C)C [Example 69, N^ε24-[2-[2-[2-[[2-[2-[2-[[(4S)-4-carboxy-4-[[(4S)-4-carboxy-4-[[(4S)-4-carboxy-4-(17-carboxyheptadecanoylamino)butanoyl]amino]butanoyl]amino]butanoyl]amino]ethoxy]ethoxy]acetyl]amino]ethoxy]ethoxy]acetyl]-[Lys^24,Leu^27,Ser^28]-Glucagon]	0.115

— patent US20160271263A1 (Novo Nordisk A/S, priority 2010, published 2016)
